Data published in patent publication US8628754B2, “Highly efficient delivery of a large therapeutic mass aerosol” (Civitas Therapeutics, Inc., priority 2000, dated 2014).
Like-named read-outs stand apart in the source and are kept apart here. One block for each molecule: values may come before it.

Assays:
[1] = system: rat model of Parkinson's disease; experiment: Placing task; type: in vivo
[2] = system: rat model of Parkinson's disease; experiment: Bracing task; type: in vivo
[3] = system: rat model of Parkinson's disease; experiment: Rotation test; type: in vivo
[4] = system: rat model of Parkinson's disease; experiment: Akinesia task; type: in vivo
[5] = oral gavage, 8 mg in saline with 1% methylcellulose, carbidopa pre-treatment, 0-30 min
[6] = Geometric diameter by RODOS dry powder disperser / HELOS laser diffraction; type: physicochemical
Excerpt: The Applicants introduced the powders into and dispersed the powder through an orifice in the RODOS dry powder disperser at varying shear forces by manipulating the regulator pressure of the air stream used to break up the particles. The Applicants obtained the geometric size distribution from the HELOS laser diffractometer as the powder exited and recorded the median value. The data was summarized and plotted as the mass median geometric diameter (MMGD) against pressure.
To evaluate the deagglomeration properties of the three powders, Applicants introduced the powders into a RODOS dry powder disperser and varied the shear force in order to break up the particles by manipulating the regulator pressure of the air stream. Subsequently, following the manufacturer's instructions, Applicants obtained the geometric size distribution from the HELOS laser diffractometer and recorded the median value. The data was summarized and plotted as […] (MMGD) against pressure.
Particles of the present invention were further characterized by the following techniques. The primary geometric diameter was measured using a RODOS dry powder disperser (Sympatec, Princeton, N.J.) in conjunction with a HELOS laser diffractometer (Sympatec). Powder was introduced into the RODOS inlet and aerosolized by shear forces generated by a compressed air stream regulated at 4 bar. The aerosol cloud was subsequently drawn into the measuring zone of the HELOS, where it scattered light from a laser beam and produced a Fraunhofer diffraction pattern used to infer the particle size distribution.
Geometric diameter was determined using a laser diffraction technique (Alkermes SOP #MS-021-005). The equipment consists of a HELOS diffractometer and a RODOS disperser (Sympatec, Inc., Princeton, N.J.). The RODOS disperser applies a shear force to a sample of particles, controlled by the regulator pressure of the incoming compressed air. The dispersed particles travel through a laser beam where the resulting diffracted light pattern produced is collected by a series of detectors. […]

Tap density = type: physicochemical
Excerpt: Tap density can be measured by using instruments known to those skilled in the art such as the Dual Platform Microprocessor Controlled Tap Density Tester (Vankel, N.C.). Tap density is a standard measure of the envelope mass density. Tap density can be determined using the method of USP Bulk Density and Tapped Density, United States Pharmacopia convention, Rockville, Md., 10th Supplement, 4950-4951, 1999. In another embodiment, the particles have a mass median geometric diameter (MMGD) greater than about 5 μm and preferably near to or greater than about 10 μm. In one embodiment, the particles have a MMGD greater than about 5 μm and ranging to about 30 μm. In another embodiment, the particles have a MMGD ranging from about 10 μm to about 30 μm.

[7] = Aerodynamic diameter by AeroDisperser/Aerosizer (AeroBreather for emitted size); type: physicochemical; details: AIR inhaler at 30 L/min, FIG. 2B
Description: The primary aerodynamic diameter was measured using an AeroDisperser/Aerosizer (TSI Inc., Amherst, Mass.). The sample powder was aerosolized by an inlet air stream at 1 psi in the AeroDisperser and then accelerated to sonic velocity into the Aerosizer. The Aerosizer measures the time taken for each particle to pass between two fixed laser beams, which is dependent on the particle's inertia. The TOF (time of flight) measurements were subsequently converted into aerodynamic diameters using Stokes law.
The emitted aerodynamic diameter from the AIR inhaler was determined using the AeroBreather (TSI Inc., Amherst, Mass.) in conjunction with the Aerosizer (TSI, Inc.). The powder was aerosolized from the inhaler at 30 L/min into the AeroBreather chamber and allowed to settle into the Aerosizer.
Aerodynamic diameter was analyzed using the API AeroDisperser and Aerosizer (TSI, Inc., St. Paul, Minn.) following standard procedures (Alkermes SOP #MS-034-005). Sample powder was introduced and dispersed in the AeroDisperser and then accelerated through a nozzle in the Aerosizer. A direct time-of-flight measurement was made for each particle in the Aerosizer, which was dependent on the particle's inertia. The time-of-flight distribution was then translated into a mass-based aerodynamic particle size distribution using a force balance based on Stokes law.

[8] = Geometric diameter emitted from breath-activated inhaler (IHA/HELOS); type: physicochemical; details: 5 mg in size #2 capsule
Description: To further evaluate the ability of the three powders to emit from a simple, breath-activated inhaler, Applicants placed 5 mg of each powder in a size #2 methyl cellulose capsule and inserted the capsule into a breath-activated inhaler. It will be appreciated by those skilled in the art that the receptacle into which the powders are placed will depend on the type of inhaler selected. […] The same results were obtained from measurements of the aerodynamic diameter, with spray-dried particles emitting with very similar aerodynamic diameters as compared to the primary particles.
The geometric diameter emitted from the breath-activated inhaler was measured using an IHA accessory (Sympatec) with the HELOS laser diffractometer. The IHA adapter positions the DPI in front of the measuring zone and allows air to be pulled through the DPI which aerosolizes the powder. Vacuum was drawn at 30 L/min to disperse powder from the AIR inhaler and the geometric diameter was measured by Fraunhofer diffraction.

time required to achieve maximum plasma concentration (insufflated rats): < 15 min | time required to achieve maximum plasma concentration (orally dosed rats): 15 to 60 min | time required to achieve maximum plasma concentration (pulmonary delivery route): ≤ 10 min | plasma levels of ketoprofen, insufflated versus oral group (t=5 min to t=60 min): significantly higher | plasma levels of ketoprofen, insufflated versus oral group (t=120 min and t=240 min): statistically equivalent
Molecule: CC(C(=O)O)c1cccc(C(=O)c2ccccc2)c1 (stereo not drawn) [Ketoprofen]

increase in blood levels of L-Dopa over time [5]: modest
Molecule: N[C@@H](Cc1ccc(O)c(O)c1)C(=O)O [L-Dopa]
difference in drug required to produce equivalent efficacy, oral versus pulmonary ([1]; doses normalized by body weight): ~10 fold | time of maximal effects ([1]; oral, 20 mg/kg): 60 min | time of peak performance ([1]; oral, 30 mg/kg): 1 to 2 h | time to improved performance with the impaired limb ([1]; oral, 30 mg/kg): ≤ 30 min | lowest dose with significant improvements ([1]; pulmonary): 0.5 mg | pulmonary dose with recovery comparable to 30 mg/kg given orally ([1]; pulmonary): 1 mg | time of peak benefits ([1]; pulmonary, highest dose tested): 15 to 30 min | time to significant improvements ([1]; pulmonary, highest dose tested): ≤ 10 min | effect on performance ([2]; oral, 20 mg/kg): slightly improved performance | time of maximal effects ([2]; oral, 30 mg/kg): ≤ 60 min | time to improved performance ([2]; oral, 30 mg/kg): ≤ 30 min | lowest dose with statistically significant improvements ([2]; pulmonary): 0.5 mg | time of peak benefits ([2]; pulmonary): 15 to 30 min | time to significant improvements ([2]; pulmonary): ≤ 10 min | rotation behavior without pre-treatment with carbidopa ([3]; data not shown): virtually eliminated | time of peak rotation levels ([3]; oral, 30 mg/kg): approximately 30 minutes | rotations during the first 10-15 minutes ([3]; oral, 30 mg/kg, carbidopa pre-treatment): < 5 rotations/animal | rotations relative to oral delivery within the first 10-15 minutes ([3]; pulmonary, 2 mg total): greater than 3 times | time of peak rotations ([3]; pulmonary, 2 mg total): 25 to 30 min | time of maximal effects ([4]; oral, 30 mg/kg): ≤ 60 min | time to improved performance ([4]; oral, 30 mg/kg): ≤ 30 min | lowest dose with statistically significant (p<0.05) improvements ([4]; pulmonary): 1.0 mg | time of peak benefits ([4]; pulmonary): 15 to 30 min | time to significant improvements ([4]; pulmonary): ≤ 10 min

primary particle size as measured by RODOS [6]: ~2 microns | Dg (geometric diameter) ([6]; RODOS/HELOS): 2.5 μm | state of powder exiting the RODOS orifice ([6]; pressures below 2 bars): aggregated state | ρ (tap density) (Tap density): 0.26 g/cc | emitted aerodynamic diameter compared to primary aerodynamic diameter [7]: much larger | geometric diameter emitted from the inhaler [8]: greater than 30 microns
Molecule: albuterol sulfate [Micronized Alb. Sulfate (1)]
